By Kd is commonly meant the constant that tells how readily two partners part at equilibrium. A low value points to higher affinity.

Data on two compounds can be found in PMC12752563, “Caffeic Acid Acts as a Potent Senomorphic and Alleviates Inflammation and Lung Fibrosis by Covalently Targeting Annexin A5 Protein in Mice” (Exploration, 2025).

Experiment [1] deals with T1, Annexin A5 (ANXA5) (Homo sapiens, UniProt P08758).
T1 construct: recombinant protein purified from E. coli; His-tag labelled for MST
T1 sequence (P08758 2-320): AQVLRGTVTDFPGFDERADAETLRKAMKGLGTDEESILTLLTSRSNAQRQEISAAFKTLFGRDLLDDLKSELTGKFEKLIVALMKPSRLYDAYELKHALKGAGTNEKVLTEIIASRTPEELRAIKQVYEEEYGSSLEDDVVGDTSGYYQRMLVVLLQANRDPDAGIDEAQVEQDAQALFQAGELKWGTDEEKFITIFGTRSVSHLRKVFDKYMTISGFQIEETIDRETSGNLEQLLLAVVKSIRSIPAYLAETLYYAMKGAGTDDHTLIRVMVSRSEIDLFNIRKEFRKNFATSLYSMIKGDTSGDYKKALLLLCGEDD
Description: in-gel fluorescence after click chemistry. The format is binding. The conditions noted are these: covalent; 12% SDS-PAGE.

Experiment [2] deals with T1, Annexin A5 (ANXA5). The experiment is described as follows: microscale thermophoresis. The format is binding. (MST reads how a fluorescent partner responds to local heating, with and without ligand.)

Regarding `C#CCNC(=O)/C=C/c1ccc(O)c(O)c1` [CA probe], the “in-gel fluorescence after click chemistry” value at Annexin A5 (ANXA5) [1] is given as “wild‐type ANXA5 could be labeled by CA‐probe”.
Take `O=C(O)/C=C/c1ccc(O)c(O)c1` [CA, caffeic acid]: at Annexin A5 (ANXA5) [2], the affinity, expressed as Kd, was 3.68 µM.
